# Measured values published in the supplement of paper PMC10307832.
# Columns and labels:
# Test in all cases: relative viability (nuclei count vs DMSO), 5 days (fraction); higher = more cells survive
# [1] = compound: COc1cc(Nc2c(C#N)cnc3cc(OCCCN4CCN(C)CC4)c(OC)cc23)c(Cl)cc1Cl [Bosutinib] + Nc1ncn([C@H]2C[C@H](O)[C@@H](CO)O2)c(=O)n1 [Decitabine] (partner 2 µM)
# Procedure, shortened: (§1)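 Lung cancer cell lines, seeded in 1536-well plates, were treated the following day by pin tool with a single drug or with five library-drug doses (not always all listed) in √10 steps on top of a fixed anchor-drug dose. Cells were fixed and nuclei stained in one step after 5 days, and nuclei were counted. Relative viability is the nuclei count for treated wells divided by that for vehicle wells, reported as medians of duplicate plates.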
# [2] = compound: COc1cc(Nc2c(C#N)cnc3cc(OCCCN4CCN(C)CC4)c(OC)cc23)c(Cl)cc1Cl [Bosutinib] + N=C(N)NC(=N)NCCc1ccccc1 [Phenformin] (partner 250 µM)
# Procedure, shortened: as §1
# [3] = compound: COc1cc(Nc2c(C#N)cnc3cc(OCCCN4CCN(C)CC4)c(OC)cc23)c(Cl)cc1Cl [Bosutinib] + C[C@]1(O)C[C@@H](c2nc(-c3ccc4ccc(-c5ccccc5)nc4c3)c3c(N)nccn32)C1 [Linsitinib] (partner 1 µM)
# Procedure, shortened: as §1
# [4] = compound: COc1cc(Nc2c(C#N)cnc3cc(OCCCN4CCN(C)CC4)c(OC)cc23)c(Cl)cc1Cl [Bosutinib] + NC(=O)Nc1cc(-c2cccc(F)c2)sc1C(=O)N[C@H]1CCCNC1 [AZD7762] (partner 0.2 µM)
# Procedure, shortened: as §1
# [5] = compound: COc1cc(Nc2c(C#N)cnc3cc(OCCCN4CCN(C)CC4)c(OC)cc23)c(Cl)cc1Cl [Bosutinib] + CC(C)C[C@H](NC(=O)[C@H](Cc1ccccc1)NC(=O)c1cnccn1)B(O)O [Bortezomib] (partner 0.002 µM)
# Procedure, shortened: as §1
Cell Line,relative viability ([1]; first compound 0.01 µM),relative viability ([1]; first compound 0.03162 µM),relative viability ([1]; first compound 0.1 µM),relative viability ([1]; first compound 1 µM),relative viability ([2]; first compound 0.01 µM),relative viability ([2]; first compound 0.03162 µM),relative viability ([2]; first compound 0.1 µM),relative viability ([2]; first compound 1 µM),relative viability ([3]; first compound 0.01 µM),relative viability ([3]; first compound 0.03162 µM),relative viability ([3]; first compound 0.1 µM),relative viability ([3]; first compound 1 µM),relative viability ([4]; first compound 0.01 µM),relative viability ([4]; first compound 0.03162 µM),relative viability ([4]; first compound 0.1 µM),relative viability ([4]; first compound 1 µM),relative viability ([5]; first compound 0.01 µM),relative viability ([5]; first compound 0.03162 µM),relative viability ([5]; first compound 0.1 µM),relative viability ([5]; first compound 1 µM)
NCI-H727,0.848,1.03,0.909,0.764,0.695,0.371,0.42,0.407,0.231,0.386,0.305,0.182,0.549,0.59,0.641,0.451,0.913,0.777,0.969,0.71
NCI-H838,0.467,0.507,0.422,0.411,0.658,0.56,0.53,0.375,1.04,0.97,0.951,0.466,0.994,0.914,0.892,0.807,0.97,0.794,0.78,0.577
NCI-H1355,0.304,0.366,0.352,0.368,0.517,0.474,0.448,0.362,0.824,0.792,0.872,0.687,0.801,0.707,0.707,0.534,1.27,1.24,1.3,1.21
NCI-H1437,0.536,0.567,0.572,0.482,0.341,0.305,0.335,0.287,1.06,1.05,0.962,0.781,1.08,1.07,1.13,0.922,0.599,0.485,0.464,0.436
NCI-H1651,0.511,0.711,0.688,0.625,0.32,0.322,0.331,0.357,0.911,1.02,0.939,0.724,0.473,0.515,0.443,0.441,0.914,0.942,0.994,0.978
NCI-H1666,0.63,0.868,0.72,0.802,0.536,0.545,0.552,0.597,0.774,0.774,0.794,0.662,0.719,0.836,0.832,0.788,0.794,0.74,0.977,0.746
NCI-H1734,0.511,0.55,0.483,0.458,0.455,0.382,0.375,0.312,0.88,0.945,0.914,0.706,0.632,0.512,0.512,0.369,0.948,0.951,0.827,0.879
NCI-H1755,0.639,0.678,0.713,0.804,0.635,0.682,0.659,0.588,0.952,1.03,1.02,0.954,0.412,0.462,0.446,0.418,0.941,1.07,1.03,0.894
NCI-H1792,0.611,0.561,0.623,0.417,0.256,0.254,0.327,0.251,0.638,0.525,0.586,0.449,0.641,0.543,0.778,0.273,0.991,0.95,0.974,0.884
NCI-H1915,0.265,0.261,0.242,0.267,0.365,0.365,0.382,0.348,1.04,1.1,1.08,1.14,0.718,0.647,0.654,0.572,0.942,0.932,1.02,1.01
NCI-H1975,0.45,0.369,0.398,0.371,0.401,0.447,0.437,0.403,0.932,0.833,0.952,0.722,0.742,0.711,0.642,0.559,0.432,0.399,0.424,0.388
NCI-H1993,0.599,0.655,0.655,0.568,0.513,0.511,0.492,0.59,0.749,0.759,0.645,0.762,0.759,0.778,0.847,0.672,1.11,1.26,1.08,0.949
NCI-H2085,0.553,0.564,0.543,0.606,0.825,0.705,0.652,0.515,0.778,0.865,0.835,1,1.1,0.903,0.939,0.65,0.982,0.969,1.02,1.04
NCI-H2087,0.289,0.311,0.294,0.271,0.563,0.43,0.411,0.457,0.871,1.08,0.779,0.94,1.54,1.13,1.31,1.24,0.809,1.02,0.876,1.03
NCI-H2126,0.548,0.537,0.609,0.588,0.519,0.567,0.544,0.568,0.645,0.717,0.687,0.628,0.982,1.04,1.03,1.04,1.06,1.1,1.07,1.11
NCI-H2347,0.631,0.623,0.64,0.529,0.323,0.453,0.54,0.376,1.08,1,1.01,0.987,0.748,0.725,0.777,0.487,1.12,1.3,1.09,0.923
NCI-H2405,0.749,0.775,0.757,0.57,0.413,0.385,0.386,0.281,0.953,0.949,0.954,0.418,0.873,0.739,0.701,0.598,0.764,1.04,1.01,0.941
NCI-H3122,0.43,0.462,0.388,0.538,0.399,0.375,0.35,0.3,0.981,0.995,1.09,0.989,1.01,0.884,0.947,0.975,1,1.1,1.04,1.06
PC-3 [JPC-3],0.883,0.798,0.826,0.596,0.481,0.506,0.43,0.441,0.954,0.957,0.971,0.912,0.787,0.738,0.689,0.641,0.8,0.773,0.765,0.77
PC-14,0.248,0.226,0.224,0.174,0.539,0.585,0.5,0.277,0.927,1.01,0.884,0.285,0.351,0.284,0.287,0.193,0.871,0.922,0.808,0.276
RERF-LC-KJ,0.643,0.656,0.645,0.737,0.407,0.427,0.42,0.387,0.893,0.885,0.845,0.838,0.979,0.982,1.07,0.877,1.08,1.08,1.07,1.05
